# How the values were obtained:
# [1] = Antagonist activity at cannabinoid receptor (unknown origin); design: species or system Homo sapiens
# [2] = target: Carbonic anhydrase 2 (Homo sapiens, UniProt P00918); experiment: Inhibition of human carbonic anhydrase 2
# [3] = target: T1, Cannabinoid receptor 1 (Homo sapiens, UniProt P21554); experiment: Antagonist activity at cannabinoid CB1 receptor (unknown origin)
# [4] = target: T1, Cannabinoid receptor 1; experiment: Antagonist activity at human cannabinoid CB1 receptor
# [5] = target: Cannabinoid receptor 2 (Homo sapiens, UniProt P34972); experiment: Antagonist activity at human cannabinoid CB2 receptor
# Cannabinoid receptor 2, sequence (P34972 whole entry): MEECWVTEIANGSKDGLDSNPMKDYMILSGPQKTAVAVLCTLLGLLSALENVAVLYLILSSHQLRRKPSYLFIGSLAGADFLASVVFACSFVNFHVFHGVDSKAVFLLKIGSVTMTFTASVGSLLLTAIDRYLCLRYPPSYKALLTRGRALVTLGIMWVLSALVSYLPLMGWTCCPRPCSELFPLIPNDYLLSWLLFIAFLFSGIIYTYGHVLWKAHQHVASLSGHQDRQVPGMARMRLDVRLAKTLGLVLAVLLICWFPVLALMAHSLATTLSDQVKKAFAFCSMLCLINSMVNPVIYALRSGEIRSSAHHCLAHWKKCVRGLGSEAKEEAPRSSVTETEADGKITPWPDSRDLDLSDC
# [6] = target: 5-hydroxytryptamine receptor 6 (Homo sapiens, UniProt P50406); experiment: Antagonist activity at 5-HT6 receptor (unknown origin)
# 5-hydroxytryptamine receptor 6, sequence (P50406 whole entry): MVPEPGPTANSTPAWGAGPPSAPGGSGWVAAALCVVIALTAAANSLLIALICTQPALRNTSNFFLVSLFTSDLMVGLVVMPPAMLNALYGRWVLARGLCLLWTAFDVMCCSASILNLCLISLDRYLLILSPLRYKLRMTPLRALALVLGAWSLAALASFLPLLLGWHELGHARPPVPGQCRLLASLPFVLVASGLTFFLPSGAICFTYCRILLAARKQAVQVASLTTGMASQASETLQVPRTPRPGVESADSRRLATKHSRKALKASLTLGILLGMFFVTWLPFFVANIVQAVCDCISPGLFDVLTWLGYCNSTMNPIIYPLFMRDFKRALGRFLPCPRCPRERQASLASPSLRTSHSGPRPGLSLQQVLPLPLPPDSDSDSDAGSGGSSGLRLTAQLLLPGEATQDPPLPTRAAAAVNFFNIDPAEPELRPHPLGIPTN
# [7] = Inhibition of HIV RT; design: species or system Human immunodeficiency virus
# [8] = system: Human immunodeficiency virus 1; experiment: Antiviral activity against HIV1; assay type: functional, organism-based
# [9] = Inhibition of HIV integrase; design: species or system Human immunodeficiency virus
# [10] = system: THP-1; experiment: Cytotoxicity against human THP1 cells assessed as reduction in cell viability; assay type: functional, cell-based
# [11] = system: Chikungunya virus; experiment: Antiviral activity against CHIKV; assay type: functional, organism-based
# [12] = target: Carbonic anhydrase 4 (Homo sapiens, UniProt P22748); experiment: Inhibition of human carbonic anhydrase 4
# Carbonic anhydrase 4, sequence (P22748 whole entry): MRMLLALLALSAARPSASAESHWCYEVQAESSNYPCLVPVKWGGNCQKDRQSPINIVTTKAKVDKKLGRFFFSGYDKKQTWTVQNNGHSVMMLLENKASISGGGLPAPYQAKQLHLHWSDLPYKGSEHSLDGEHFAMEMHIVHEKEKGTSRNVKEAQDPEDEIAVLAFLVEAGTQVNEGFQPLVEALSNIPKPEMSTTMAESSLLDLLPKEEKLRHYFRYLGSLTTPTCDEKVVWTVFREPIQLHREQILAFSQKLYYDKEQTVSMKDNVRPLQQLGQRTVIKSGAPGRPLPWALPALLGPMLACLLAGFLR
# [13] = Inhibition of rat 5'-nucleotidase
# [14] = target: T2, Prostaglandin G/H synthase 2 (Rattus norvegicus, UniProt P35355); experiment: Inhibition of COX2 isolated from rat seminal vesicles assessed as reduction of PGG2 to PGH2 using arachidonic acid substrate preincubated for 15 mins followed by substrate addition
# T2 sequence (P35355 whole entry): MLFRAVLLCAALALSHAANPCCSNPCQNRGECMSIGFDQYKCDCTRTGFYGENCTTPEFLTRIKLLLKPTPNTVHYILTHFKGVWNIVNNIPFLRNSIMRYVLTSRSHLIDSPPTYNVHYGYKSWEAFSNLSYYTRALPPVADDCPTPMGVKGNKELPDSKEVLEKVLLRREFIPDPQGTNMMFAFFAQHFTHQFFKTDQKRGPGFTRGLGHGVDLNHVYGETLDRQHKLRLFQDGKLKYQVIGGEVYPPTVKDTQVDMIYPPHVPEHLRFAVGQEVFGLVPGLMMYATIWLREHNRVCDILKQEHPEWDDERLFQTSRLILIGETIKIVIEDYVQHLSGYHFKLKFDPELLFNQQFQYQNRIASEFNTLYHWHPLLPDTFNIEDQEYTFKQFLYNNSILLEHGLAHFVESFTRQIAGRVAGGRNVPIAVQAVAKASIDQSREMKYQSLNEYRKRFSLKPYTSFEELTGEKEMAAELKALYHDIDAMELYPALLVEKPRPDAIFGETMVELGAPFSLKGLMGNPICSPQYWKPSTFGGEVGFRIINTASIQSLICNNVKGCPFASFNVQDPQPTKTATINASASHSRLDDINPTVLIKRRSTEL
# [15] = system: Trypanosoma cruzi; experiment: Antitrypanosomal activity against Trypanosoma cruzi; assay type: functional, organism-based
# [16] = system: Leishmania amazonensis; experiment: Antileishmanial activity against Leishmania amazonensis; assay type: functional, organism-based
# [17] = system: Leishmania infantum; experiment: Antileishmanial activity against Leishmania infantum; assay type: functional, organism-based
# [18] = target: Carbonic anhydrase 1 (Homo sapiens, UniProt P00915); experiment: Inhibition of human carbonic anhydrase 1
# Carbonic anhydrase 1, sequence (P00915 whole entry): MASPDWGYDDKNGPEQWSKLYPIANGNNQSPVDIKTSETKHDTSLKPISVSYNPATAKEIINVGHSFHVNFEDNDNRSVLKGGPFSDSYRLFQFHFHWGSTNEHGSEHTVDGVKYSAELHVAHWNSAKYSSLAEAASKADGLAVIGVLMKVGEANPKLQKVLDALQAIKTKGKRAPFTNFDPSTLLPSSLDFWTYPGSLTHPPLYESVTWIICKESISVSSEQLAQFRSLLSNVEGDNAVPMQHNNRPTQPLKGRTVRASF
# [19] = Inhibition of HIV protease; design: species or system Human immunodeficiency virus
# [20] = Half life in rat; assay type: ADME; details: in vivo
# T1 sequence (P21554 whole entry): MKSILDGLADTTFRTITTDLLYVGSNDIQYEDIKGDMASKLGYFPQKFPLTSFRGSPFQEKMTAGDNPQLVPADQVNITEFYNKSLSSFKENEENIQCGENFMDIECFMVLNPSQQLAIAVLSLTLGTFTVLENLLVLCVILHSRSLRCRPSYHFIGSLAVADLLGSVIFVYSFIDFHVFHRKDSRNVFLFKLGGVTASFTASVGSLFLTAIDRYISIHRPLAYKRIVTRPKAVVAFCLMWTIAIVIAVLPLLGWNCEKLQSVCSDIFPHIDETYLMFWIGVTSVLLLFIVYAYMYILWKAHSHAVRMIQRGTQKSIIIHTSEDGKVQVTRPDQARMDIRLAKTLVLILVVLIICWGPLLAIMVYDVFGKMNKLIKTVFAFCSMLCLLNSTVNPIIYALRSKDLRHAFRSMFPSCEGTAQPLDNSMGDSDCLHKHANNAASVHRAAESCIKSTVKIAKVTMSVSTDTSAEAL
compound,measurement,setting,value
O=S(=O)(NCc1ccc(-c2ccc(F)cc2F)cn1)c1cc2cc(Cl)ccc2[nH]1,IC50,[1],3 nM
NS(=O)(=O)c1ccc(N2C(=O)CC/C2=C\C(=O)c2ccc([N+](=O)[O-])cc2Cl)cc1,IC50,[2],0.46 nM
O=C(NN1CCCCC1)c1cn(-c2ccc(Cl)cc2Cl)c(-c2ccc(C#Cc3ccc(C(F)(F)F)cc3)s2)c1CNS(=O)(=O)N1CCCC1,EC50,[3],3 nM
same,Ki,[4],0.3 nM
same,Ki,[5],21 nM
O=S(=O)(Nc1ccc2[nH]ccc2c1)c1c(Cl)nc2n1CCS2,Ki,[6],16.9 nM
CN(C)c1cccnc1N1CCN(C(=O)c2cc3cc(NS(C)(=O)=O)ccc3[nH]2)CC1,IC50,[7],> 100 µM
same,IC50,[8],21 nM
same,IC50,[9],36 nM
CCOc1ccc(-c2ccc(CNS(=O)(=O)c3cc4cc(Cl)ccc4[nH]3)cc2)cn1,IC50,[1],4 nM
O=S(=O)(Nc1ccc([Se][Se]c2ccc(NS(=O)(=O)c3ccc(F)cc3)cc2)cc1)c1ccc(F)cc1,IC50,[10],2800 nM
CCn1cnc2c(Oc3ccc(/C=C/C(=O)c4ccc(NS(=O)(=O)c5ccccc5C)cc4)cc3)ncnc21,EC50,[11],51.6 µg/mL
CC(C)c1ccc(S(=O)(=O)Nc2ccc3nc(N4CCN(C)CC4)sc3c2)cc1,IC50,[6],14 µM
O=S(=O)(Cl)c1c(Cl)nc2n1CCS2,Ki,[6],8.4 nM
COc1ccc(C2=NN(C(C)=O)C(c3ccc(OS(N)(=O)=O)cc3)C2)cc1 (configuration not stated),IC50,[12],20.5 nM
same,IC50,[2],0.4 nM
COc1ccc(/C=C/C(=O)/C(=N/Nc2ccc(S(N)(=O)=O)cc2)N2CCOCC2)cc1,IC50,[13],330 nM
NS(=O)(=O)c1ccc(N2C(=O)CC/C2=C\C(=O)c2cccc(F)c2)cc1,IC50,[2],0.46 nM
Cc1cc(S(=O)(=O)N2CCc3c(nc(CC(C)(C)C)n3CC3CC3)C2)no1,EC50,[4],7 nM
C/C(=N\NC(=O)CNC(=O)c1cccc(S(=O)(=O)Nc2ccccc2Cl)c1)c1ccc(F)cc1,IC50,[14],8.4 µM
O=S(=O)(Nc1cccc2cnccc12)c1ccc2ccccc2c1,IC50,[15],224 µM
same,IC50,[16],42.9 µM
same,IC50,[17],23 µM
Cc1cc(S(=O)(=O)N2CCc3c(nc(C(C)(C)C)n3CC3CC3)C2)no1,EC50,[4],5.1 nM
NS(=O)(=O)c1ccc(N2C(=O)/C(=C/c3ccc(C(F)(F)F)cc3)C=C2c2ccc(Cl)cc2)cc1,IC50,[14],0.62 µM
COc1cc(/C=C2\C=C(c3ccc(Cl)cc3)N(c3ccc(S(N)(=O)=O)cc3)C2=O)cc(OC)c1OC,IC50,[14],0.42 µM
CN1CCN(c2nc3cc(NS(=O)(=O)c4cccc5ccccc45)ccc3s2)CC1,IC50,[6],3.9 µM
CC(=O)/C(=N\Nc1cccc(-n2nc(C(=O)Nc3nnc(S(N)(=O)=O)s3)c(C(=O)Nc3nnc(S(N)(=O)=O)s3)c2-c2ccccc2)c1)C(=O)c1ccccc1,Ki,[18],119 nM
CCCC(=O)/C(=N/Nc1cccc(-n2nc(C(=O)Nc3nnc(S(N)(=O)=O)s3)c(C(=O)Nc3nnc(S(N)(=O)=O)s3)c2-c2ccccc2)c1)C(=O)OCC,Ki,[2],884 nM
O=S(=O)(Nc1ccc2sc(N3CCNCC3)nc2c1)c1cccc2ccccc12,Ki,[6],500 nM
O=C(CNC(=O)c1cccc(S(=O)(=O)Nc2ccccc2Cl)c1)N/N=C/c1ccc(C(F)(F)F)cc1,IC50,[14],8.9 µM
O=c1ccnc(SCc2cc(=O)oc3cc(OS(=O)(=O)c4ccccc4[N+](=O)[O-])ccc23)[nH]1,EC50,[11],13 µM
Cc1ccc(S(=O)(=O)Oc2ccc3c(CSc4nc5ccccc5c(=O)[nH]4)cc(=O)oc3c2)cc1,EC50,[11],10.2 µM
CC(=O)N1CCc2ccc(NS(=O)(=O)c3c(Cl)nc4n3CCS4)cc21,Ki,[6],5.4 nM
N#Cc1ccc(S(=O)(=O)Nc2cccc(C(c3c(O)c4c(oc3=O)CCCCCC4)C3CC3)c2)cc1 (configuration not stated),Ki,[19],0.8 nM
same,IC50,[11],1.5 nM
same,half-life,[20],360 min

# — ChEMBL document CHEMBL4602601, “Pharmaceutical and medicinal significance of sulfur (SVI)-Containing motifs for drug discovery: A critical review” (Eur J Med Chem, 2019)
